Here are results for ten compounds from ChEMBL document CHEMBL5380877, “Azulene as a biphenyl mimetic in orexin/hypocretin receptor agonists” (Bioorg Med Chem, 2023).

Holding throughout (assay type): functional, cell-based
One assay has as its target T1, Orexin receptor type 2 (Homo sapiens, UniProt O43614).
T1 sequence (O43614 whole entry): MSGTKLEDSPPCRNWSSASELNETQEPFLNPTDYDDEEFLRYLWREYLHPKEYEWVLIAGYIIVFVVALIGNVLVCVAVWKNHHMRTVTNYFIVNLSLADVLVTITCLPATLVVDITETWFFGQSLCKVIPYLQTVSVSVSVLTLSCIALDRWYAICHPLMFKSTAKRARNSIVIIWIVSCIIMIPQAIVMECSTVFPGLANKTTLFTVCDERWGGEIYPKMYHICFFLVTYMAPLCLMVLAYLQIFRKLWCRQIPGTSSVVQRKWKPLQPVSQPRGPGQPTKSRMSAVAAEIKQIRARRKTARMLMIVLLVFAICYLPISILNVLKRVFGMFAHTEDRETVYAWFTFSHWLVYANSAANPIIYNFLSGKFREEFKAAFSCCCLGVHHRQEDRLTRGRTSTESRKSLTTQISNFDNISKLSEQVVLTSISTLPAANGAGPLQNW
Nature of the assay: Antagonist activity at human OX2 receptor expressed in CHO cells assessed as reduction in orexin-A induced calcium level at 10 uM incubated for 24 hrs by FLIPR calcium 4 assay.

Assay [1] addresses T2, Orexin/Hypocretin receptor type 1 (Homo sapiens, UniProt O43613).
T2 sequence (O43613 whole entry): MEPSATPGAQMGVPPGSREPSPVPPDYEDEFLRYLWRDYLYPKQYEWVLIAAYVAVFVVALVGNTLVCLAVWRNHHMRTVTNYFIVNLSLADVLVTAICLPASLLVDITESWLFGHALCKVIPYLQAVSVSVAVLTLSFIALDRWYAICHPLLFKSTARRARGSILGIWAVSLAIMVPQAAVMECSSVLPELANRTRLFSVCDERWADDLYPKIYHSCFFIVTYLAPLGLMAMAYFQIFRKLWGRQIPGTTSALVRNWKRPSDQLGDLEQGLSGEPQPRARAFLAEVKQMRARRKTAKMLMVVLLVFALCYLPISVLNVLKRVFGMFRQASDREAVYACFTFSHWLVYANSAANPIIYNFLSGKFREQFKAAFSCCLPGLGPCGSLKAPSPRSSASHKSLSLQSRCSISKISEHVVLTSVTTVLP
Nature of the assay: Antagonist activity at human OX1 receptor expressed in CHO cells assessed as reduction in orexin-A induced calcium level at 10 uM incubated for 24 hrs by FLIPR calcium 4 assay.

Assay [2] concerns the target T2, Orexin/Hypocretin receptor type 1. In words: Agonist activity at human OX1 receptor expressed in CHO cells assessed as increase in Ca2+ accumulation level measured after 24 hrs by FLIPR calcium 4 assay.

Turning to `CN(C)C(=O)c1ccc2ccc(C(=O)N(C)C)c-2cc1`, at Orexin receptor type 2, the inhibitory constant (Ki) (as a rule, a dissociation constant, usually derived from enzyme kinetics or from competition with a known ligand) is over 10 µM.
Consider `Cc1ccc2c(C(=O)N(C)C)cc(S(=O)(=O)Nc3cccc(N(CCNC(=O)c4cccc(C)c4)C(=O)C(F)(F)F)c3)c-2cc1`, for which the Ki on Orexin receptor type 2 is over 10 µM.
On the same count and under the same terms, the result for `CN(C)C(=O)c1ccc2ccc(C(=O)C(F)(F)F)c-2cc1` reads over 10 µM.
Turning to `Cc1ccc2c(C(=O)N(C)C)cc(S(=O)(=O)Nc3cccc(NCCNC(=O)c4cccc(C)c4)c3)c-2cc1`, the Ki in assay [1] came to 4 µM. For the same compound, the EC50 (in general, the concentration giving half of the maximal effect) in assay [2] was 1.62 µM.
`Cc1cccc(C(=O)NCCN(C(=O)C(F)(F)F)c2cccc(NS(=O)(=O)c3cc(C(=O)C(F)(F)F)c4ccc(C(=O)N(C)C)ccc3-4)c2)c1`: on Orexin receptor type 2, the Ki is over 10 µM.
Regarding `Cc1ccc2c(C(=O)N(C)C)cc(S(=O)(=O)O)c-2cc1`, at Orexin receptor type 2, the Ki is over 10 µM.
Still for that read-out and setting: the value for `Cc1ccc2c(C(=O)C(F)(F)F)cc(S(=O)(=O)O)c-2cc1` was over 10 µM; that for `Cc1cccc(C(=O)NCCNc2cccc(NS(=O)(=O)c3cc(C(=O)C(F)(F)F)c4ccc(C(=O)N(C)C)ccc3-4)c2)c1` was over 10 µM.
Same read-out and setting: the result for `CN(C)C(=O)c1ccc2c(C(=O)N(C)C)cc(S(=O)(=O)O)c-2cc1` reads over 10 µM; that for `Cc1ccc2c(C(=O)C(F)(F)F)cc(S(=O)(=O)Nc3cccc(NCCNC(=O)c4cccc(C)c4)c3)c-2cc1`, 5 µM.
